Patent US12180187B2, “1-phenyl-5-azinylpyrazolyl-3-oxyalkyl acids and their use for controlling unwanted plant growth” (BAYER AKTIENGESELLSCHAFT, priority 2019, dated 2024)
Values joined by “and” are separate entries in the source; they are usually repeats but may differ in a detail not shown here. Equal entries are not always repeated.

Legend:
ALOMY = assay: Pre-emergence action against ALOMY, 1280 g/ha; assay type: in vivo, Alopecurus myosuroides; details: visual scoring after about 3 weeks vs untreated controls, 100% = plants have died, 0% = like control plants
How it was run: (§1)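 In greenhouse pots of sandy loam, sown weed seeds were covered with soil and treated pre-emergence with the compound in water (600 L/ha, 0.5% additive). Efficacy was assessed visually as percent of untreated control after about 3 weeks.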

VERPE [1] = assay: Pre-emergence action against VERPE, 1280 g/ha; assay type: in vivo, Veronica persica; details: scored visually after about 3 weeks vs untreated controls (100% = plants have died); for pest or weed control at 1280 g/ha: Veronica persica, 504 h
How it was run: as §1

ECHGC = assay: Pre-emergence action at 320 g/ha against ECHGC; assay type: in vivo, Echinochloa crus-galli; details: visual scoring after about 3 weeks vs untreated controls
How it was run: (§2)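 Weed seeds sown in pots and covered with soil; compounds formulated as WP or EC were sprayed onto the soil surface as aqueous suspension or emulsion with 0.5% additive at 600 l/ha water. Pots kept in greenhouse; activity scored visually after about 3 weeks versus untreated controls (100% = plants dead, 0% = like control).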

LOLRI = assay: Pre-emergence action at 320 g/ha against LOLRI; assay type: in vivo, Lolium rigidum; details: visual scoring after about 3 weeks vs untreated controls; for pest or weed control at 320 g/ha: Lolium rigidum, 504 h
How it was run: as §2

MATIN = assay: Pre-emergence action at 320 g/ha against MATIN; assay type: in vivo, Tripleurospermum inodorum (Matricaria inodora); details: visual scoring after about 3 weeks vs untreated controls; for pest or weed control at 320 g/ha: Tripleurospermum inodorum, 504 h
How it was run: as §2

STEME [2] = assay: Pre-emergence action at 320 g/ha against STEME; assay type: in vivo, Stellaria media; details: greenhouse, scored visually after about 3 weeks vs untreated controls, 100% = plants have died, 0% = like control plants
How it was run: as §2

STEME [3] = assay: Post-emergence action against STEME, 1.28 kg/ha; assay type: in vivo, Stellaria media; details: dosage 1280 g/ha, visual rating about 3 weeks after treatment vs untreated controls (100% = plants died)
How it was run: (§3)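 Greenhouse pot test, sandy loam; weeds sprayed post-emergence at one-leaf stage (2–3 weeks after sowing) with WP or EC formulation plus 0.5% additive, 600 l/ha water. Visual rating after about 3 weeks versus untreated controls, 100% = plants dead, 0% = like control.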

VERPE [4] = assay: Post-emergence action against VERPE, 1.28 kg/ha; assay type: in vivo, Veronica persica; details: dosage 1280 g/ha, visual rating about 3 weeks after treatment vs untreated controls (100% = plants died); for pest or weed control at 1280 g/ha: Veronica persica, 504 h
How it was run: as §3

DIGSA = assay: Post-emergence action at 320 g/ha against DIGSA; assay type: in vivo, Digitaria sanguinalis; details: dosage 320 g/ha, visual rating about 3 weeks after treatment vs untreated controls (100% = plants died); for pest or weed control at 320 g/ha: Digitaria sanguinalis, 504 h
How it was run: (§4)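 Greenhouse pot plants in sandy loam received a foliar spray of WP- or EC-formulated compound at the one-leaf stage. Percent activity against untreated controls was assessed visually around three weeks later.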

ECHCG = assay: Post-emergence action at 320 g/ha against ECHCG; assay type: in vivo, Echinochloa crus-galli; details: dosage 320 g/ha, visual rating about 3 weeks after treatment vs untreated controls (100% = plants died)
How it was run: as §4

POLCO = assay: Post-emergence action at 320 g/ha against POLCO; assay type: in vivo, Fallopia convolvulus (Polygonum convolvulus); details: visual rating about 3 weeks after treatment vs untreated controls; for pest or weed control at 320 g/ha: Fallopia convolvulus, 504 h
How it was run: as §4

AVEFA = assay: Post-emergence action at 320 g/ha against AVEFA; assay type: in vivo; details: visual rating about 3 weeks after treatment vs untreated controls; for pest or weed control at 320 g/ha: Avena fatua, 504 h
How it was run: as §4

HORMU = assay: Post-emergence action at 320 g/ha against HORMU; assay type: in vivo, Hordeum murinum; details: visual rating about 3 weeks after treatment vs untreated controls
How it was run: as §4

KCHSC [5] = assay: Post-emergence action against KCHSC, 1.28 kg/ha; assay type: in vivo, Bassia scoparia; details: dosage 1280 g/ha, visual rating about 3 weeks after treatment vs untreated controls (100% = plants died)
How it was run: as §3

KCHSC [6] = assay: Pre-emergence action against KCHSC, 1280 g/ha; assay type: in vivo, Bassia scoparia; details: scored visually after about 3 weeks vs untreated controls (100% = plants have died)
How it was run: as §1

Question: With `O=C(O)COc1nn(-c2ccccc2F)c(-c2ccc(F)nc2)c1Br` [VII-003, {[4-Bromo-1-(2-fluorophenyl)-5-(6-fluoropyridin-3-yl)-1H-pyrazol-3-yl]oxy}acetic acid] as the molecule, how does the “Pre-emergence action against ALOMY” value (ALOMY) read?
Answer: 90%

Question: And the pest or weed control at 1280 g/ha (VERPE [1])?
Answer: 90%

Question: What about the “Pre-emergence action against ECHGC in %” value (ECHGC) of the same molecule?
Answer: 100%

Question: What about the pest or weed control at 320 g/ha (LOLRI) of the same molecule?
Answer: 100%

Question: What about the pest or weed control at 320 g/ha (MATIN) of the same molecule?
Answer: 90%

Question: And the “Pre-emergence action at 320 g/ha against STEME in %” value (STEME [2])?
Answer: 90%

Question: What about the “Post-emergence action against STEME” value (STEME [3]) of the same molecule?
Answer: 100%

Question: What about the pest or weed control at 1280 g/ha (VERPE [4]) of the same molecule?
Answer: 90%

Question: What about the pest or weed control at 320 g/ha (DIGSA) of the same molecule?
Answer: 90%

Question: What about the “Post-emergence action at 320 g/ha against ECHCG in %” value (ECHCG) of the same molecule?
Answer: 90%

Question: What about the pest or weed control at 320 g/ha (POLCO) of the same molecule?
Answer: 90%

Question: What about the pest or weed control at 320 g/ha (AVEFA) of the same molecule?
Answer: 80%

Question: And the “Post-emergence action against HORMU in %” value (HORMU)?
Answer: 90%

Question: Which “Pre-emergence action against ALOMY” value (ALOMY) does the source give for `CCOC(=O)COc1nn(-c2ccccc2F)c(-c2ccc(F)nc2)c1Br` [VII-012, Ethyl {[4-bromo-1-(2-fluorophenyl)-5-(6-fluoropyridin-3-yl)-1H-pyrazol-3-yl]oxy}acetate] here?
Answer: 100% and 90%

Question: What about the pest or weed control at 1280 g/ha (VERPE [1]) of the same molecule?
Answer: 100%

Question: What about the “Pre-emergence action against ECHGC in %” value (ECHGC) of the same molecule?
Answer: 100%

Question: And the pest or weed control at 320 g/ha (LOLRI)?
Answer: 90%

Question: What about the pest or weed control at 320 g/ha (MATIN) of the same molecule?
Answer: 90%

Question: What about the “Pre-emergence action at 320 g/ha against STEME in %” value (STEME [2]) of the same molecule?
Answer: 100%

Question: What about the “Post-emergence action against KCHSC” value (KCHSC [5]) of the same molecule?
Answer: 90%

Question: What about the “Post-emergence action against STEME” value (STEME [3]) of the same molecule?
Answer: 100%

Question: And the pest or weed control at 1280 g/ha (VERPE [4])?
Answer: 90%

Question: What about the pest or weed control at 320 g/ha (DIGSA) of the same molecule?
Answer: 80%

Question: What about the “Post-emergence action at 320 g/ha against ECHCG in %” value (ECHCG) of the same molecule?
Answer: 90%

Question: And the pest or weed control at 320 g/ha (POLCO)?
Answer: 90%

Question: And the pest or weed control at 320 g/ha (AVEFA)?
Answer: 90%

Question: What about the “Post-emergence action against HORMU in %” value (HORMU) of the same molecule?
Answer: 90%

Question: For `COC(=O)C(C)Oc1nn(-c2ccccc2)c(-c2cccnc2)c1Cl` (stereo not drawn) [VII-032], which “Pre-emergence action against VERPE” value (VERPE [1]) is on record?
Answer: 100%

Question: And the “Pre-emergence action against ECHGC in %” value (ECHGC)?
Answer: 90%

Question: What about the “Pre-emergence action against LOLRI in %” value (LOLRI) of the same molecule?
Answer: 100%

Question: And the “Pre-emergence action against MATIN in %” value (MATIN)?
Answer: 90%

Question: What about the “Pre-emergence action at 320 g/ha against STEME in %” value (STEME [2]) of the same molecule?
Answer: 90%

Question: What about the “Post-emergence action against STEME” value (STEME [3]) of the same molecule?
Answer: 100%

Question: And the “Post-emergence action against VERPE” value (VERPE [4])?
Answer: 100%

Question: What about the “Post-emergence action at 320 g/ha against DIGSA in %” value (DIGSA) of the same molecule?
Answer: 90%

Question: And the “Post-emergence action at 320 g/ha against ECHCG in %” value (ECHCG)?
Answer: 90%

Question: And the “Post-emergence action against POLCO in %” value (POLCO)?
Answer: 80%

Question: What about the “Post-emergence action against AVEFA in %” value (AVEFA) of the same molecule?
Answer: 100%

Question: And the “Post-emergence action against HORMU in %” value (HORMU)?
Answer: 90%

Question: Which “Pre-emergence action against VERPE” value (VERPE [1]) does the source give for `O=C(O)COc1nn(-c2ccccc2F)c(-c2ccnc(F)c2)c1Br` [VIII-004] here?
Answer: 90%

Question: And the “Pre-emergence action against ECHGC in %” value (ECHGC)?
Answer: 90%

Question: What about the “Pre-emergence action against LOLRI in %” value (LOLRI) of the same molecule?
Answer: 90%

Question: And the “Pre-emergence action against MATIN in %” value (MATIN)?
Answer: 90%

Question: And the “Pre-emergence action at 320 g/ha against STEME in %” value (STEME [2])?
Answer: 90%

Question: What about the “Post-emergence action against STEME” value (STEME [3]) of the same molecule?
Answer: 100%

Question: And the “Post-emergence action against VERPE” value (VERPE [4])?
Answer: 90%

Question: What about the “Post-emergence action at 320 g/ha against DIGSA in %” value (DIGSA) of the same molecule?
Answer: 90%

Question: What about the “Post-emergence action at 320 g/ha against ECHCG in %” value (ECHCG) of the same molecule?
Answer: 90%

Question: What about the “Post-emergence action against POLCO in %” value (POLCO) of the same molecule?
Answer: 80%

Question: What about the “Post-emergence action against AVEFA in %” value (AVEFA) of the same molecule?
Answer: 100%

Question: And the “Post-emergence action against HORMU in %” value (HORMU)?
Answer: 90%

Question: Which “Pre-emergence action against ALOMY” value (ALOMY) does the source give for `CCOC(=O)C(C)Oc1nn(-c2ccccc2F)c(-c2ccc(F)nc2)c1Br` (stereo not drawn) [VII-019] here?
Answer: 90%

Question: And the “Pre-emergence action against KCHSC” value (KCHSC [6])?
Answer: 100%

Question: And the “Pre-emergence action against VERPE” value (VERPE [1])?
Answer: 100%

Question: What about the “Pre-emergence action against ECHGC in %” value (ECHGC) of the same molecule?
Answer: 100%

Question: And the “Pre-emergence action against LOLRI in %” value (LOLRI)?
Answer: 100%

Question: And the “Pre-emergence action against MATIN in %” value (MATIN)?
Answer: 100%

Question: What about the “Pre-emergence action at 320 g/ha against STEME in %” value (STEME [2]) of the same molecule?
Answer: 90%

Question: And the “Post-emergence action against KCHSC” value (KCHSC [5])?
Answer: 90%

Question: And the “Post-emergence action against STEME” value (STEME [3])?
Answer: 100%

Question: And the “Post-emergence action against VERPE” value (VERPE [4])?
Answer: 90%

Question: What about the “Post-emergence action at 320 g/ha against DIGSA in %” value (DIGSA) of the same molecule?
Answer: 90%

Question: And the “Post-emergence action at 320 g/ha against ECHCG in %” value (ECHCG)?
Answer: 90%

Question: And the “Post-emergence action against POLCO in %” value (POLCO)?
Answer: 90%

Question: And the “Post-emergence action against AVEFA in %” value (AVEFA)?
Answer: 100%

Question: What about the “Post-emergence action against HORMU in %” value (HORMU) of the same molecule?
Answer: 100%

Question: How did the pest or weed control at 1280 g/ha (VERPE [1]) turn out when `COC(=O)C(C)Oc1nn(-c2ccccc2)c(-c2ccc(F)nc2)c1Cl` (stereo not drawn) [VII-023, Methyl 2-{[4-chloro-5-(6-fluoropyridin-3-yl)-1-phenyl-1H-pyrazol-3-yl]oxy}propanoate] was run?
Answer: 100%

Question: What about the “Pre-emergence action against ECHGC in %” value (ECHGC) of the same molecule?
Answer: 90%

Question: And the pest or weed control at 320 g/ha (LOLRI)?
Answer: 100%

Question: And the pest or weed control at 320 g/ha (MATIN)?
Answer: 90%

Question: And the “Pre-emergence action at 320 g/ha against STEME in %” value (STEME [2])?
Answer: 90%

Question: And the “Post-emergence action against STEME” value (STEME [3])?
Answer: 100%

Question: And the pest or weed control at 1280 g/ha (VERPE [4])?
Answer: 100%

Question: And the pest or weed control at 320 g/ha (DIGSA)?
Answer: 90%

Question: And the “Post-emergence action at 320 g/ha against ECHCG in %” value (ECHCG)?
Answer: 80%

Question: And the pest or weed control at 320 g/ha (POLCO)?
Answer: 90%

Question: What about the pest or weed control at 320 g/ha (AVEFA) of the same molecule?
Answer: 80%

Question: What about the “Post-emergence action against HORMU in %” value (HORMU) of the same molecule?
Answer: 90%
